Data: ChEMBL document CHEMBL5346943, “Discovery and Structural Optimization of Novel Quinolone Derivatives as Potent Irreversible Pan-Fibroblast Growth Factor Receptor Inhibitors for Treating Solid Tumors” (J Med Chem, 2023)
Values after ≈ are worked out from the molar mass of the structure shown. Active and inactive are the calls of the source. No cut-off for these calls is given here.

Assays:
[1] = molecular target: Fibroblast growth factor receptor 2 (Homo sapiens, UniProt P21802); experiment: Inhibition of FGFR2 (unknown origin) incubated for 10 mins followed by substrate addition measured after 60 mins by ADP-Glo luminescence assay
Chain of Fibroblast growth factor receptor 2 (P21802 whole entry): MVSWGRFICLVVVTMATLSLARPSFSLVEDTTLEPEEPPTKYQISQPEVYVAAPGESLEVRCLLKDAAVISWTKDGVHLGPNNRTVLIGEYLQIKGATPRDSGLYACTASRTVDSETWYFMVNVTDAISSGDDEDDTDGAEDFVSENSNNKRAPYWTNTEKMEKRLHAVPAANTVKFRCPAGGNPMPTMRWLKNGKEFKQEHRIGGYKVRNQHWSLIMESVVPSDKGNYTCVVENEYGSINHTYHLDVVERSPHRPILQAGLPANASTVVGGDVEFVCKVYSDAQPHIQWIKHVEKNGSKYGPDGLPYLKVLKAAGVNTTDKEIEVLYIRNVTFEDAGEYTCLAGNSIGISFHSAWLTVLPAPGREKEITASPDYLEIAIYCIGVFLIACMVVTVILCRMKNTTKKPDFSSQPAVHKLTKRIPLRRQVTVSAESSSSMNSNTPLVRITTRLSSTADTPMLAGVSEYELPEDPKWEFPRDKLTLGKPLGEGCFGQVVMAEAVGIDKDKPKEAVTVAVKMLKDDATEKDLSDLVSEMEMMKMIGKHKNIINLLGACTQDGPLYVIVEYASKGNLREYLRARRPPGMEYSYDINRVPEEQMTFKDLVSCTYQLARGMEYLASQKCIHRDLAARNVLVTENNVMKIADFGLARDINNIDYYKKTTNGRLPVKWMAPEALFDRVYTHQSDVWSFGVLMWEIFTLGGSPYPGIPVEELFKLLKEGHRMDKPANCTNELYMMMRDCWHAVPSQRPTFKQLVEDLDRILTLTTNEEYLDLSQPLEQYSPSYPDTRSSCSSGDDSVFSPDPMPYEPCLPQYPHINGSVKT

[2] = molecular target: Fibroblast growth factor receptor 1 (Homo sapiens, UniProt P11362); experiment: Inhibition of FGFR1 (unknown origin) incubated for 10 mins followed by substrate addition measured after 60 mins by ADP-Glo luminescence assay
Chain of Fibroblast growth factor receptor 1 (P11362 whole entry): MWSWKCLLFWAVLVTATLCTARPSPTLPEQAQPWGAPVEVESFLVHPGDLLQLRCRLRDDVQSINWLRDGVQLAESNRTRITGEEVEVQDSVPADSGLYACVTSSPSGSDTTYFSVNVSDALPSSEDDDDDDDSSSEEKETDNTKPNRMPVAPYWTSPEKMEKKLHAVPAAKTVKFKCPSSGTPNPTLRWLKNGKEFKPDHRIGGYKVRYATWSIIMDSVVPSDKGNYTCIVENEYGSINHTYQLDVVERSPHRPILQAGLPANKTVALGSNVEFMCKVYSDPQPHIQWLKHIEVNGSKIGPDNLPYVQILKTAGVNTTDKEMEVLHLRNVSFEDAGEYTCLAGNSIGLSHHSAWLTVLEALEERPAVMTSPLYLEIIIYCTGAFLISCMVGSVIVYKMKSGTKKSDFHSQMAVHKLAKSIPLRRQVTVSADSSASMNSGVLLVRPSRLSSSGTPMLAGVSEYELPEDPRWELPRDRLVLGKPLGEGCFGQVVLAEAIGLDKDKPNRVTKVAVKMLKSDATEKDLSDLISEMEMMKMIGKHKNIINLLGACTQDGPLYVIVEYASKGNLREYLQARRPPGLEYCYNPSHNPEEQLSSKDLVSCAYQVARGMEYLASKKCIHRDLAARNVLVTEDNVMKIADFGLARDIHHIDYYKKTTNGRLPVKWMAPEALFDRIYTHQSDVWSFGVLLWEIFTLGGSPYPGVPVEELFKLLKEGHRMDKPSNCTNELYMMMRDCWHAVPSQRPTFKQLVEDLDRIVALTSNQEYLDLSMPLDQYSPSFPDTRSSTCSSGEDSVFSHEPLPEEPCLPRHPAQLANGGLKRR

[3] = molecular target: Fibroblast growth factor receptor 4 (Homo sapiens, UniProt P22455); experiment: Inhibition of FGFR4 (unknown origin) incubated for 10 mins followed by substrate addition measured after 60 mins by ADP-Glo luminescence assay
Chain of Fibroblast growth factor receptor 4 (P22455 whole entry): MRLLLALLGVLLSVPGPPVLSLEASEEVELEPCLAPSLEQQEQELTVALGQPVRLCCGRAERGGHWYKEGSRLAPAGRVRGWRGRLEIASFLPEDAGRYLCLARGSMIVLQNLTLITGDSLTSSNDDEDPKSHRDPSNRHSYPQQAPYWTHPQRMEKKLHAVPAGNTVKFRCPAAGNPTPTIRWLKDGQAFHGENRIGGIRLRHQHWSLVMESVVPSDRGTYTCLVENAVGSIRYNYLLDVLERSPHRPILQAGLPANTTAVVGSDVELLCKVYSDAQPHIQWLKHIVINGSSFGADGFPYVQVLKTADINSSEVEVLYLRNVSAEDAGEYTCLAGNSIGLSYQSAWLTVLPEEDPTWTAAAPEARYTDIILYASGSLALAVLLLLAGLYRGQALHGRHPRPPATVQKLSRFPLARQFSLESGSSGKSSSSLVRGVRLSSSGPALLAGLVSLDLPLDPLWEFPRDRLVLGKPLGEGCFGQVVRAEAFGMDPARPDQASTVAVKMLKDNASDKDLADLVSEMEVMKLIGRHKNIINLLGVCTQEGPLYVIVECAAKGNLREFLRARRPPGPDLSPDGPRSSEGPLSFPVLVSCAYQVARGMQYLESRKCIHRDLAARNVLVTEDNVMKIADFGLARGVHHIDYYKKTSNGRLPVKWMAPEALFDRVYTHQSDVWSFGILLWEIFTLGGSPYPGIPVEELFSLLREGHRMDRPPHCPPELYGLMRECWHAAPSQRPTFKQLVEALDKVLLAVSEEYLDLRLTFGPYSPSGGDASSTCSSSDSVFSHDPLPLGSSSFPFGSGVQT

Huh-7 [4] = experiment: Antiproliferative activity against human Huh-7 cells incubated for 72 hrs by Cell counting kit 8 method; type: functional, cell-based; details: Huh-7, 72 h
Hep 3B2 = experiment: Antiproliferative activity against human Hep3B cells incubated for 72 hrs by Cell counting kit 8 method; type: functional, cell-based
[5] = molecular target: Fibroblast growth factor receptor 3 (Homo sapiens, UniProt P22607); experiment: Inhibition of FGFR3 (unknown origin) incubated for 10 mins followed by substrate addition measured after 60 mins by ADP-Glo luminescence assay
Chain of Fibroblast growth factor receptor 3 (P22607 whole entry): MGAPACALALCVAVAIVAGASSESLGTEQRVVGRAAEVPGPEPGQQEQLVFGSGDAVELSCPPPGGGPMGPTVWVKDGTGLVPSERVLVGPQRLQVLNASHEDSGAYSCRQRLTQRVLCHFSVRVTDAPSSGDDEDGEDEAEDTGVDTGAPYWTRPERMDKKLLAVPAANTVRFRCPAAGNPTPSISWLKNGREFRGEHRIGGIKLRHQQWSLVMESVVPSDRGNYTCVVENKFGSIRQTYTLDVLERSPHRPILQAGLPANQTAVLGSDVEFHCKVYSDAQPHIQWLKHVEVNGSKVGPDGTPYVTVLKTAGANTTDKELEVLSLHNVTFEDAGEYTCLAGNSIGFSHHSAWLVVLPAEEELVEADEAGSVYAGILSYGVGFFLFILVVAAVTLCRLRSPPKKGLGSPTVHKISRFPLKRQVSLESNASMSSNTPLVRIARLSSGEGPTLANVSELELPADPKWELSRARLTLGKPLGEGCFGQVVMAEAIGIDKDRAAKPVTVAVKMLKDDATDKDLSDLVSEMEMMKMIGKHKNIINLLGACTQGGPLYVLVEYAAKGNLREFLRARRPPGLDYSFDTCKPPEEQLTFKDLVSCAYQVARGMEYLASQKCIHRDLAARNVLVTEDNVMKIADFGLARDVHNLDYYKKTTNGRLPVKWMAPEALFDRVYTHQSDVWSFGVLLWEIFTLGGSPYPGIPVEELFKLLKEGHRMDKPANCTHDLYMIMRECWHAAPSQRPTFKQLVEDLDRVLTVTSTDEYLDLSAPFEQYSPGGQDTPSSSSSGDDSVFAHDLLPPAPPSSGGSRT

[6] = Microsomal stability in human liver microsomes assessed as half life preincubated for 10 mins followed by NADPH addition measured upto 60 mins by LC-MS/MS analysis; type: ADME, Microsome; details: time < 70 min
[7] = Microsomal stability in human liver microsomes assessed as intrinsic clearance preincubated for 10 mins followed by NADPH addition measured upto 60 mins by LC-MS/MS analysis; type: ADME, Microsome; details: time < 70 min, read-out: CLH
[8] = Solubility of the compound in PBS buffer of pH7.4 at 10 mM measured after 2 hrs by LC-MS/MS analysis; type: physicochemical; details: pH 7.4
[9] = Permeability of the compound at 10 uM preincubated in acceptor compartment for 16 hrs followed by 16 hrs incubation in donor compartment by PAMPA based LC-MS/MS analysis; type: ADME; details: time 32 hrs, read-out: permeability
[10] = Ionization constant, pKa of the compound in PBS buffer at pH 1.42 to 12.33 by electrochemical method; type: physicochemical
[11] = C0 in Sprague-Dawley rat measured at 2 mg/kg, iv for 0.083 to 24 hrs by LC-MS/MS analysis; type: ADME, organism-based; details: in vivo, time 0.083-24 hrs
[12] = Cmax in Sprague-Dawley rat measured at 2 mg/kg, iv for 0.083 to 24 hrs by LC-MS/MS analysis; type: ADME, organism-based; design: time upper 24 hrs, time lower 0.083 hrs, dose 2 mg/kg, route iv; details: in vivo
[13] = AUC (0 to t) in Sprague-Dawley rat measured at 2 mg/kg, iv for 0.083 to 24 hrs by LC-MS/MS analysis; type: ADME, organism-based; design: dose 2 mg/kg, time upper 24 hrs, time lower 0.083 hrs, route iv; details: in vivo
[14] = MRT (0 to t) in Sprague-Dawley rat measured at 2 mg/kg, iv for 0.083 to 24 hrs by LC-MS/MS analysis; type: ADME, organism-based; details: in vivo, time 0.083-24 hrs
[15] = Clearance in Sprague-Dawley rat measured at 2 mg/kg, iv for 0.083 to 24 hrs by LC-MS/MS analysis; type: ADME, organism-based; details: in vivo, time 0.083-24 hrs
[16] = Volume of distribution at steady state in Sprague-Dawley rat measured at 2 mg/kg, iv for 0.083 to 24 hrs by LC-MS/MS analysis; type: ADME, organism-based; details: in vivo, time 0.083-24 hrs, read-out: Vdss
[17] = MRT (0 to t) in Sprague-Dawley rat measured at 10 mg/kg, po for 0.083 to 24 hrs by LC-MS/MS analysis; type: ADME, organism-based; details: in vivo, time 0.083-24 hrs
[18] = MRT (0 to infinity) in Sprague-Dawley rat measured at 10 mg/kg, po for 0.083 to 24 hrs by LC-MS/MS analysis; type: ADME, organism-based; details: in vivo, time 0.083-24 hrs
[19] = Oral bioavailability in Sprague-Dawley rat measured at 10 mg/kg for 0.083 to 24 hrs by LC-MS/MS analysis; type: ADME, organism-based; details: in vivo, time 0.083-24 hrs
[20] = Cmax in Sprague-Dawley rat measured at 30 mg/kg, po for 0.083 to 24 hrs by LC-MS/MS analysis; type: ADME, organism-based; design: dose 30 mg/kg, time upper 24 hrs, time lower 0.083 hrs, route po; details: in vivo
[21] = Half life in Sprague-Dawley rat measured at 100 mg/kg, po for 0.083 to 24 hrs by LC-MS/MS analysis; type: ADME, organism-based; details: in vivo, time 0.083-24 hrs
[22] = Tmax in Sprague-Dawley rat measured at 30 mg/kg, po for 0.083 to 24 hrs by LC-MS/MS analysis; type: ADME, organism-based; details: in vivo, time 0.083-24 hrs
[23] = Tmax in Sprague-Dawley rat measured at 60 mg/kg, po for 0.083 to 24 hrs by LC-MS/MS analysis; type: ADME, organism-based; details: in vivo, time 0.083-24 hrs
[24] = AUC(0 to t) in Sprague-Dawley rat measured at 30 mg/kg, po for 0.083 to 24 hrs by LC-MS/MS analysis; type: ADME, organism-based; design: time 0.083-24 hrs, dose 30 mg/kg, route po; details: in vivo
[25] = AUC(0 to t) in Sprague-Dawley rat measured at 100 mg/kg, po for 0.083 to 24 hrs by LC-MS/MS analysis; type: ADME, organism-based; design: time upper 24 hrs, dose 100 mg/kg, time lower 0.083 hrs, route po; details: in vivo
[26] = AUC(0 to infinity) in Sprague-Dawley rat measured at 30 mg/kg, po for 0.083 to 24 hrs by LC-MS/MS analysis; type: ADME, organism-based; design: time upper 24 hrs, dose 30 mg/kg, time lower 0.083 hrs, route po; details: in vivo
[27] = AUC(0 to infinity) in Sprague-Dawley rat measured at 60 mg/kg, po for 0.083 to 24 hrs by LC-MS/MS analysis; type: ADME, organism-based; design: time lower 0.083 hrs, dose 60 mg/kg, time upper 24 hrs, route po; details: in vivo
[28] = AUC(0 to infinity) in Sprague-Dawley rat measured at 100 mg/kg, po for 0.083 to 24 hrs by LC-MS/MS analysis; type: ADME, organism-based; design: dose 100 mg/kg, time 0.083-24 hrs, route po; details: in vivo
[29] = Antiproliferative activity against human RBE cells incubated for 72 hrs by Cell counting kit 8 method; type: functional, cell-based
MV4-11 = experiment: Antiproliferative activity against human MV4-11 cells incubated for 72 hrs by Cell counting kit 8 method; type: functional, cell-based; details: MV4-11, 72 h
A549 = experiment: Antiproliferative activity against human A549 cells incubated for 72 hrs by Cell counting kit 8 method; type: functional, cell-based; details: A549, 72 h
MCF7 = experiment: Antiproliferative activity against human MCF7 cells incubated for 72 hrs by Cell counting kit 8 method; type: functional, cell-based; details: MCF7, 72 h
SNU-16 = experiment: Antiproliferative activity against human SNU-16 cells incubated for 72 hrs by Cell counting kit 8 method; type: functional, cell-based; details: SNU-16, 72 h
Huh-7 [30] = experiment: Antitumor activity against human Huh-7 cells xenografted in BALB/c nude mouse assessed as reduction in tumor growth once daily at 60 mg/kg, po for 24 days; type: functional, organism-based; details: time 24.0 day
Huh-7 [31] = experiment: Antitumor activity against human Huh-7 cells xenografted in BALB/c nude mouse assessed as tumor growth inhibition once daily at 30 mg/kg, po for 24 days relative to control; type: functional; design: scale not given: the % may be the effect or the level left; details: time 24 day
NCI-H1581 = experiment: Antitumor activity against human NCI-H1581 cells xenografted in BALB/c nude mouse assessed as tumor growth inhibition once daily at 60 mg/kg, po for 24 days relative to control; type: functional; design: scale not given: the % may be the effect or the level left; details: time 24 day
[32] = Toxicity in […] nude mouse xenografted with NCI-H1581 cells assessed as change in body weight once daily at 15 to 60 mg/kg, po for 24 days relative to control; type: organism-based; details: in vivo, 576 h, dose 15-60 mg/kg, time 24 day
[33] = Toxicity in […] nude mouse xenografted with Huh-7 cells assessed as change in body weight once daily at 15 to 60 mg/kg, po for 24 days relative to control; type: organism-based; details: in vivo, 576 h, dose 15-60 mg/kg, time 24 day

## C=CC(=O)N1CCC(c2cc3c(Oc4ccc(NC(=O)NC5CC5)c(Cl)c4)ccnc3cc2OC)CC1
[1]
  IC50: 3.1 nM
[2]
  IC50: 9.9 nM
[3]
  IC50: 1.8 nM
Huh-7 [4]
  IC50: 12.6 nM
Hep 3B2
  IC50: 52.6 nM
[5]
  IC50: 16 nM
[6]
  half-life: 1.03 h
[7]
  microsomal CLint: 46.7 µL/min/mg
[8]
  solubility at 2 h, 10000 µM: 1.73 µM (≈ 0.901 µg/mL)
[9]
  Papp at 16 h, 10 µM: 12.3 ×10⁻⁶ cm/s
[10]
  pKa: 5.77
[11]
  C0: 3300 ng/mL
[12]
  Cmax: 1840 ng/mL
[13]
  AUC(0-t): 570 ng·h/mL
[14]
  MRT last: 0.18 h
[15]
  clearance: 58 mL/min/kg
[16]
  Vd: 1.32 L/kg
[17]
  MRT last: 1.99 h
[18]
  MRT: 3.16 h
[19]
  bioavailability: 60.7%
[20]
  Cmax: 6070 ng/mL
[21]
  half-life: 1.36 h
[22]
  Tmax: 0.5 h
[23]
  Tmax: 0.5 h
[24]
  AUC(0-t): 7920 ng·h/mL
[25]
  AUC(0-t): 28100 ng·h/mL
[26]
  AUC(0-inf): 7950 ng·h/mL
[27]
  AUC(0-inf): 14900 ng·h/mL
[28]
  AUC(0-inf): 28200 ng·h/mL
[29]
  IC50: 357 nM
MV4-11
  IC50: > 10000 nM
A549
  IC50: > 10000 nM
MCF7
  IC50: > 10000 nM
SNU-16
  IC50: 1.8 nM
Huh-7 [30]
  Activity: Active
Huh-7 [31]
  Activity: 89.6%
NCI-H1581
  Activity: 67%
[32]
  Activity: Active
[33]
  Activity: Active
